# Measurements as given in patent publication US20190030036A1, “PHOSPHODIESTERASE INHIBITOR TREATMENT” (Cyrano Therapeutics, Inc., priority 2013, published 2019).
# Marks after values point to notes of the source that are not given here.
# Test system: patients with hyposmia
# Assay: Smell function (DT, RT, ME, H) by forced-choice, three-stimuli, stepwise-staircase technique with four odors; open trial of oral theophylline
# Type: in vivo, human
# Source text: Patients initially reported their sensory dysfunction as either loss of taste (e.g., flavor) and/or smell function. This subjective response was documented by objective psychophysical measurements of olfactory function administered to each patient by use of a forced-choice, three-stimuli, stepwise-staircase technique in a fixed, controlled design (1, 53). Efficacy of this technique and results of testing were previously documented in a double-blind clinical trial (53). Four odors were used; they were pyridine (dead-fish odor), nitrobenzene (bitter-almond odor), thiophene (petroleum-like odor) and amyl acetate (banana-oil odor). Detection thresholds (DT), recognition thresholds (RT) and magnitude estimation (ME) values for each odor were determined as previously described (1, 53). Thresholds were converted into bottle units (BU) as previously described (53) and results reported as M±SEM of correct responses for each odor in each treatment group; ME was reported in % and results calculated to obtain M±SEM for each treatment group for all correct responses using data for the four highest odor concentrations presented (from 10^−2M—an absolute odor concentration).
# In addition, each patient graded the hedonic (H) value of each odor presented for these same odor concentrations (from 10^−2M—an absolute odor concentration using a −100−0−+100 scale). […] Results were obtained by calculating the arithmetical sum of each correct recognition response for each odor with respect to its pleasantness, unpleasantness or neutrality. Arithmetic M±SEM were obtained for each treatment group for each odor presented.
# After determination of hyposmia, patients were treated in an open label, fixed design, controlled open trial. Patients were given an oral extended release theophylline in divided daily doses taken in the middle of breakfast and lunch. All patients were initially given 200 mg of theophylline; changes in this dose were made based upon subjective responses to therapy. If at a subsequent return visit, patients reported ≥5% subjective improvement in overall smell function, they continued on this same dose of theophylline and were reevaluated after four to six months of continued treatment. Results from any subsequent return from these improved patients were not included in any subsequent data report. All subsequent comparisons between treated and untreated patients were made only between those patients continuing in the study compared to their own measurements obtained in the untreated state. If patients reported <5% subjective improvement, their theophylline dose was increased by 200 mg daily and they were scheduled for retesting at the study site after two to four months at this new dosage. For patients that reported <5% improvement, this sequence continued until patients reached 800 mg of theophylline, at which time the study was considered completed.
# Patients returned for reevaluation after two to four months of treatment. Measurements of blood serum theophylline were measured by a fluorescence polarization assay (Abbott, Chicago, Ill.). At this time, subjective changes in smell function were measured independently (compared to patient's memory of previous normal smell function monitored by use of the patients' daily measurements) using the scale from −100−0-+100 previously described. After independently recording their subjective responses, smell function was measured for all four odors with DT, RT, ME and H determined without recourse to prior measurements.
# Since data for all measurements from each patient group (local or distant) on each dose level were combined mean and SEM for each measurement (DT, RT, ME, H) of smell function for each treatment group were calculated on this basis. Differences in measurements between before treatment and each treatment level were calculated and significance of differences estimated using Student t tests (values p<0.05 considered significant). […]
# [1] = amyl acetate, oral theophylline 200 mg
# [2] = amyl acetate, oral theophylline 200 mg daily, all patients (199)
# [3] = amyl acetate, oral theophylline 200 mg, Type I hyposmia (57)
# [4] = amyl acetate, oral theophylline 200 mg, Type II hyposmia (138)
# [5] = amyl acetate, oral theophylline 200 mg, Type III hyposmia (4)
# [6] = amyl acetate, oral theophylline 400 mg
# [7] = amyl acetate, oral theophylline 400 mg daily, all patients (120)
# [8] = amyl acetate, oral theophylline 400 mg, Type I hyposmia (33)
# [9] = amyl acetate, oral theophylline 400 mg, Type II hyposmia (85)
# [10] = amyl acetate, oral theophylline 400 mg, Type III hyposmia (2)
# [11] = amyl acetate, oral theophylline 600 mg daily, all patients (160)
# [12] = amyl acetate, oral theophylline 600 mg, Type I hyposmia (51)
# [13] = amyl acetate, oral theophylline 600 mg, Type II hyposmia (105)
# [14] = amyl acetate, oral theophylline 600 mg, Type III hyposmia (4)
# [15] = amyl acetate, oral theophylline 800 mg daily, all patients (28)
# [16] = amyl acetate, oral theophylline 800 mg, Type I hyposmia (12)
# [17] = amyl acetate, oral theophylline 800 mg, Type II hyposmia (16)
# [18] = nitrobenzene, oral theophylline 200 mg
# [19] = nitrobenzene, oral theophylline 200 mg daily, all patients (199)
# [20] = nitrobenzene, oral theophylline 200 mg, Type I hyposmia (57)
# [21] = nitrobenzene, oral theophylline 200 mg, Type II hyposmia (138)
# [22] = nitrobenzene, oral theophylline 200 mg, Type III hyposmia (4)
# [23] = nitrobenzene, oral theophylline 400 mg
# [24] = nitrobenzene, oral theophylline 400 mg daily, all patients (120)
# [25] = nitrobenzene, oral theophylline 400 mg, Type I hyposmia (33)
# [26] = nitrobenzene, oral theophylline 400 mg, Type II hyposmia (85)
# [27] = nitrobenzene, oral theophylline 400 mg, Type III hyposmia (2)
# [28] = nitrobenzene, oral theophylline 600 mg daily, all patients (160)
# [29] = nitrobenzene, oral theophylline 600 mg, Type I hyposmia (51)
# [30] = nitrobenzene, oral theophylline 600 mg, Type II hyposmia (105)
# [31] = nitrobenzene, oral theophylline 600 mg, Type III hyposmia (4)
# [32] = nitrobenzene, oral theophylline 800 mg daily, all patients (28)
# [33] = nitrobenzene, oral theophylline 800 mg, Type I hyposmia (12)
# [34] = nitrobenzene, oral theophylline 800 mg, Type II hyposmia (16)
structure (smiles),measurement,setting,value
Cn1c(=O)c2[nH]cnc2n(C)c1=O [theophylline],increase of H values (more pleasant),[1],2%
same,increase of ME values,[1],5%
same,"DT, detection threshold",[2],7.9 ± 0.2^c BU
same,"H, hedonic estimation",[2],3 ± 1%
same,"ME, magnitude estimation",[2],15 ± 2^d %
same,"RT, recognition threshold",[2],9.9 ± 0.2^c BU
same,"DT, detection threshold",[3],10.5 ± 0.3^d BU
same,"H, hedonic value",[3],4 ± 2^a %
same,"ME, magnitude estimation",[3],6 ± 2^a %
same,"RT, recognition threshold",[3],11.3 ± 0.2^ BU
same,"DT, detection threshold",[4],7.0 ± 0.3^ BU
same,"H, hedonic value",[4],3 ± 2^ %
same,"ME, magnitude estimation",[4],19 ± 2^ %
same,"RT, recognition threshold",[4],9.3 ± 0.2^ BU
same,"DT, detection threshold",[5],2.8 ± 0.5 BU
same,"H, hedonic value",[5],14 ± 13%
same,"ME, magnitude estimation",[5],32 ± 10%
same,"RT, recognition threshold",[5],5.2 ± 1.6 BU
same,ME increases,[6],8%
same,change of H values (became more pleasant),[6],1%
same,"DT, detection threshold",[7],7.1 ± 0.3^b BU
same,"H, hedonic estimation",[7],3 ± 2^ %
same,"ME, magnitude estimation",[7],18 ± 2^c %
same,"RT, recognition threshold",[7],9.3 ± 0.3^b BU
same,"DT, detection threshold",[8],10.1 ± 0.5^a BU
same,"H, hedonic value",[8],5 ± 3^a %
same,"ME, magnitude estimation",[8],7 ± 3^a %
same,"RT, recognition threshold",[8],11.2 ± 0.3^ BU
same,"DT, detection threshold",[9],6.1 ± 0.4^a BU
same,"H, hedonic value",[9],0.3 ± 2.8^ %
same,"ME, magnitude estimation",[9],21 ± 3^ %
same,"RT, recognition threshold",[9],8.8 ± 0.4^a BU
same,"DT, detection threshold",[10],2 BU
same,"H, hedonic value",[10],75%
same,"ME, magnitude estimation",[10],75%
same,"RT, recognition threshold",[10],3 BU
same,"DT, detection threshold",[11],7.8 ± 0.3^a BU
same,"H, hedonic estimation",[11],4 ± 1^ %
same,"ME, magnitude estimation",[11],15 ± 2^c %
same,"RT, recognition threshold",[11],9.6 ± 0.2^a BU
same,"DT, detection threshold",[12],10.1 ± 0.3^a BU
same,"H, hedonic value",[12],−0.4 ± 1^ %
same,"ME, magnitude estimation",[12],5 ± 2^a %
same,"RT, recognition threshold",[12],11.1 ± 0.2^ BU
same,"DT, detection threshold",[13],6.8 ± 0.3^a BU
same,"H, hedonic value",[13],7 ± 2^ %
same,"ME, magnitude estimation",[13],19 ± 2^ %
same,"RT, recognition threshold",[13],8.9 ± 0.3^a BU
same,"DT, detection threshold",[14],2.5 ± 1.0 BU
same,"H, hedonic value",[14],28 ± 19%
same,"ME, magnitude estimation",[14],31 ± 17%
same,"RT, recognition threshold",[14],4.8 ± 1.7 BU
same,"DT, detection threshold",[15],7.2 ± 0.8^ BU
same,"H, hedonic estimation",[15],8 ± 5^ %
same,"ME, magnitude estimation",[15],24 ± 2^a %
same,"RT, recognition threshold",[15],9.0 ± 0.5^b BU
same,"DT, detection threshold",[16],10.6 ± 0.5^ BU
same,"H, hedonic value",[16],−1 ± 4^ %
same,"ME, magnitude estimation",[16],5 ± 3^a %
same,"RT, recognition threshold",[16],11.6 ± 0.4^ BU
same,"DT, detection threshold",[17],4.6 ± 0.7^a BU
same,"H, hedonic value",[17],13 ± 9^ %
same,"ME, magnitude estimation",[17],38 ± 6^c %
same,"RT, recognition threshold",[17],7.1 ± 0.6^a BU
same,increase of H values (more pleasant),[18],2%
same,increase of ME values,[18],5%
same,"DT, detection threshold",[19],7.8 ± 0.2^d BU
same,"H, hedonic estimation",[19],6 ± 2^a %
same,"ME, magnitude estimation",[19],17 ± 2 ^ %
same,"RT, recognition threshold",[19],9.5 ± 0.2^a BU
same,"DT, detection threshold",[20],10.3 ± 0.3^a BU
same,"H, hedonic value",[20],4 ± 2^a %
same,"ME, magnitude estimation",[20],5 ± 2^a %
same,"RT, recognition threshold",[20],11.2 ± 0.2^d BU
same,"DT, detection threshold",[21],6.9 ± 0.3^a BU
same,"H, hedonic value",[21],7 ± 2^ %
same,"ME, magnitude estimation",[21],22 ± 2^ %
same,"RT, recognition threshold",[21],8.8 ± 0.3^ BU
same,"DT, detection threshold",[22],3.8 ± 0.7 BU
same,"H, hedonic value",[22],13 ± 12%
same,"ME, magnitude estimation",[22],33 ± 8%
same,"RT, recognition threshold",[22],5.0 ± 0.6 BU
same,ME increases,[23],11%
same,change of H values (became more pleasant),[23],4%
same,"DT, detection threshold",[24],7.2 ± 0.3^c BU
same,"H, hedonic estimation",[24],8 ± 3^a %
same,"ME, magnitude estimation",[24],23 ± 2^a %
same,"RT, recognition threshold",[24],8.9 ± 0.3^b BU
same,"DT, detection threshold",[25],9.8 ± 0.5^a BU
same,"H, hedonic value",[25],3 ± 3^a %
same,"ME, magnitude estimation",[25],8 ± 3^a %
same,"RT, recognition threshold",[25],10.9 ± 0.4^e BU
same,"DT, detection threshold",[26],6.3 ± 0.4^a BU
same,"H, hedonic value",[26],11 ± 3^ %
same,"ME, magnitude estimation",[26],27 ± 3^a %
same,"RT, recognition threshold",[26],8.2 ± 0.4^a BU
same,"DT, detection threshold",[27],2.5 BU
same,"H, hedonic value",[27],−62%
same,"ME, magnitude estimation",[27],79%
same,"RT, recognition threshold",[27],4.0 BU
same,"DT, detection threshold",[28],7.8 ± 0.3^a BU
same,"H, hedonic estimation",[28],8 ± 2^d %
same,"ME, magnitude estimation",[28],18 ± 2^d %
same,"RT, recognition threshold",[28],9.1 ± 0.2^c BU
same,"DT, detection threshold",[29],9.9 ± 0.4^c BU
same,"H, hedonic value",[29],2 ± 2^ %
same,"ME, magnitude estimation",[29],6 ± 2^a %
same,"RT, recognition threshold",[29],10.8 ± 0.3^ BU
same,"DT, detection threshold",[30],6.8 ± 0.3^a BU
same,"H, hedonic value",[30],11 ± 2^ %
same,"ME, magnitude estimation",[30],24 ± 2^ %
same,"RT, recognition threshold",[30],8.4 ± 0.3^ BU
same,"DT, detection threshold",[31],3.8 ± 0.9 BU
same,"H, hedonic value",[31],12 ± 16%
same,"ME, magnitude estimation",[31],33 ± 13%
same,"RT, recognition threshold",[31],4.5 ± 1.3 BU
same,"DT, detection threshold",[32],7.0 ± 0.8^d BU
same,"H, hedonic estimation",[32],13 ± 7 ^ %
same,"ME, magnitude estimation",[32],25 ± 6 ^ %
same,"RT, recognition threshold",[32],7.8 ± 0.8^d BU
same,"DT, detection threshold",[33],10.1 ± 0.8^ BU
same,"H, hedonic value",[33],2 ± 2^a %
same,"ME, magnitude estimation",[33],4 ± 3^a %
same,"RT, recognition threshold",[33],11.3 ± 0.7^ BU
same,"DT, detection threshold",[34],4.6 ± 0.9^a BU
same,"H, hedonic value",[34],22 ± 11^ %
same,"ME, magnitude estimation",[34],42 ± 8^b %
same,"RT, recognition threshold",[34],5.1 ± 0.9^a BU
same,total mean increase of ME for all odors,oral theophylline 200 mg,5.1%
same,increase of H values for amyl acetate,"oral theophylline 200 mg daily, not statistically significant",50%
same,total mean increase of ME for all odors,oral theophylline 400 mg,10.4%
same,decrease of H values for thiophene,oral theophylline 400 mg daily,40%
same,increase of H values for nitrobenzene,"oral theophylline 400 mg daily, not statistically significant",50%
